Experimental data from article PMC3082971 (Biochemistry, 2011).

Target: T1, hVDAC2 (Homo sapiens, UniProt P45880)
T1 sequence (P45880 2-294): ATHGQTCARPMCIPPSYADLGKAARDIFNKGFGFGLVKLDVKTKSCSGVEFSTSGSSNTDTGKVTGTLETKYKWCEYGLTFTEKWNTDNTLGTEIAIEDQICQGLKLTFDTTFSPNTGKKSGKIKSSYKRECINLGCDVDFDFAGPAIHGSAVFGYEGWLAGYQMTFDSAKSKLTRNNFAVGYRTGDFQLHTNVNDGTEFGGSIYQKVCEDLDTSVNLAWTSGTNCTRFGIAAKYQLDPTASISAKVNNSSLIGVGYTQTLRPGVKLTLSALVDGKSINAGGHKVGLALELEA
Experiment: biochemical

SMILES: CCOc1ccccc1-n1c(C(C)N2CCN(C(=O)COc3ccc(Cl)cc3)CC2)nc2ccccc2c1=O (stereo not shown) [erastin]
- EC50: 52.6 ± 28.2 nM
